Results on 20 compounds are retold here after patent US12331026B2 (NiKang Therapeutics, Inc., priority 2022, dated 2025).

The target in this assay is T1, CDK2 (Homo sapiens, UniProt P24941).
T1 construct: endogenous in cells; host or cells: OVCAR3 cells
The assay can be described thus: Phospho-RB measurement in OVCAR3 cells (HTRF phospho-RB S807/811). It counts as cell-based. Conditions: phosphorylation of RB protein at S807/811, HTRF, 24 h compound treatment, 0.3 to 10,000 nM, read-out: pRb (uM). The procedure, abridged:
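IC50 values come from four-parameter logistic fits of the DMSO-normalised 665/620 nm TR-FRET ratio for phospho-RB (S807/811). Antibody detection ran 4 h at room temperature.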
A general note: TR-FRET usually uses a lanthanide donor and a delayed reading to cut background.

The structures appear in SMILES notation.

Consider `COc1cccc(F)c1S(=O)(=O)Nc1cccc(-c2nc(N3C4CCC3CN(C)C4)sc2-c2ccnc(NC3CC4(C3)CS(=O)(=O)C4)n2)c1F` [Example 57, N-(3-(5-(2-((2,2-dioxido-2-thiaspiro[3.3]heptan-6-yl)amino)-pyrimidin-4-yl)-2-(3-methyl-3,8-diazabicyclo[3.2.1]octan-8-yl)thiazol-4-yl)-2-fluorophenyl)-2-fluoro-6-methoxybenzenesulfonamide], for which the IC50 was 0.6 µM.
Regarding `N#CC12CCC(CC1)N2c1nc(-c2cccc(NS(=O)(=O)c3c(F)cccc3F)c2F)c(-c2ccnc(NC3CC4(C3)CS(=O)(=O)C4)n2)s1` [Example 54, N-(3-(2-(1-cyano-7-azabicyclo[2.2.1]heptan-7-yl)-5-(2-((2,2-dioxido-2-thiaspiro[3.3]heptan-6-yl)amino)pyrimidin-4-yl)thiazol-4-yl)-2-fluorophenyl)-2,6-difluorobenzenesulfonamide], the IC50 turned out to be 0.2 µM.
On to `O=S1(=O)CC2(CC(Nc3nccc(-c4sc(C5(C(F)F)CCC5)nc4-c4cccc(NS(=O)(=O)c5c(F)cccc5C(F)(F)F)c4F)n3)C2)C1` [Example 83, N-(3-(2-(1-(difluoromethyl)cyclobutyl)-5-(2-((2,2-dioxido-2-thiaspiro[3.3]heptan-6-yl)amino)pyrimidin-4-yl)thiazol-4-yl)-2-fluorophenyl)-2-fluoro-6-(trifluoromethyl)benzenesulfonamide], for which the IC50 turned out to be 0.04 µM.
Take `O=S1(=O)C[C@@H]2[C@H](C1)[C@H]2Nc1nccc(-c2sc(C3(C(F)F)CC3)nc2-c2cccc(NS(=O)(=O)c3c(F)cccc3C(F)(F)F)c2F)n1` [Example 72, N-(3-(2-(1-(difluoromethyl)cyclopropyl)-5-(2-(((1R,5S,6r)-3,3-dioxido-3-thiabicyclo[3.1.0]hexan-6-yl)amino)pyrimidin-4-yl)thiazol-4-yl)-2-fluorophenyl)-2-fluoro-6-(trifluoromethyl)benzenesulfonamide]: the IC50 came out at 0.061 µM.
On to `O=S1(=O)CC2(CC(Nc3nccc(-c4sc(N5C6CCC5COC6)nc4-c4cccc(NS(=O)(=O)c5c(F)cccc5F)c4F)n3)C2)C1` [Example 2, N-(3-(2-(3-oxa-8-azabicyclo[3.2.1]octan-8-yl)-5-(2-((2,2-dioxido-2-thiaspiro[3.3]heptan-6-yl)amino)pyrimidin-4-yl)thiazol-4-yl)-2-fluorophenyl)-2,6-difluorobenzenesulfonamide], for which the IC50 came out at 0.15 µM.
With `CS(=O)(=O)C1CCC(Nc2nccc(-c3sc(C45CC(F)(C4)C5)nc3-c3cccc(NS(=O)(=O)c4c(F)cccc4C(F)(F)F)c3F)n2)CC1` (centres unmarked) [Example 27, 2-fluoro-N-(2-fluoro-3-(2-(3-fluorobicyclo[1.1.1]pentan-1-yl)-5-(2-(((1s,4s)-4-(methylsulfonyl)cyclohexyl)amino)pyrimidin-4-yl)thiazol-4-yl)phenyl)-6-(trifluoromethyl)benzenesulfonamide], the IC50 turned out to be 0.066 µM.
In the case of `C[C@H]1CN(C)C[C@H](C)N1c1nc(-c2cccc(NS(=O)(=O)c3c(F)cccc3C(F)(F)F)c2F)c(-c2ccnc(N[C@H]3[C@@H]4CS(=O)(=O)C[C@@H]43)n2)s1` [Example 124, N-(3-(5-(2-(((1R,5S,6r)-3,3-dioxido-3-thiabicyclo[3.1.0]hexan-6-yl)amino)pyrimidin-4-yl)-2-((2S,6S)-2,4,6-trimethylpiperazin-1-yl)thiazol-4-yl)-2-fluorophenyl)-2-fluoro-6-(trifluoromethyl)benzenesulfonamide] it was 0.04 µM; in that of `O=S1(=O)C[C@@H]2[C@H](C1)[C@H]2Nc1nccc(-c2sc(N3C4CCC3CC(F)(F)C4)nc2-c2cccc(NS(=O)(=O)c3c(F)cccc3F)c2F)n1` [Example 115, N-(3-(2-(3,3-difluoro-8-azabicyclo[3.2.1]octan-8-yl)-5-(2-(((1R,5S,6r)-3,3-dioxido-3-thiabicyclo[3.1.0]hexan-6-yl)amino)pyrimidin-4-yl)thiazol-4-yl)-2-fluorophenyl)-2,6-difluorobenzenesulfonamide], 0.05 µM.
Consider `O=S1(=O)CC2(CC(Nc3nccc(-c4sc(C56CC(C(F)(F)F)(C5)C6)nc4-c4cccc(NS(=O)(=O)c5c(F)cccc5C(F)(F)F)c4F)n3)C2)C1` [Example 88, N-(3-(5-(2-((2,2-dioxido-2-thiaspiro[3.3]heptan-6-yl)amino)-pyrimidin-4-yl)-2-(3-(trifluoromethyl)bicyclo[1.1.1]pentan-1-yl)thiazol-4-yl)-2-fluorophenyl)-2-fluoro-6-(trifluoromethyl)-benzenesulfonamide], for which the IC50 is 0.09 µM.
In the case of `CS(=O)(=O)[C@H]1CC[C@@H](Nc2nccc(-c3sc(C45CC(C4)C5)nc3-c3cccc(NS(=O)(=O)c4c(F)cccc4C(F)(F)F)c3F)n2)CC1` [Example 132, N-(3-(2-(bicyclo[1.1.1]pentan-1-yl)-5-(2-(((1s,4s)-4-(methylsulfonyl)cyclohexyl)amino)pyrimidin-4-yl)thiazol-4-yl)-2-fluorophenyl)-2-fluoro-6-(trifluoromethyl)benzenesulfonamide] it was 0.05 µM; in that of `O=S1(=O)C[C@@H]2[C@H](C1)[C@H]2Nc1nccc(-c2sc(N3C4CCC3CN(C3CC3)C4)nc2-c2cccc(NS(=O)(=O)c3c(F)cccc3C(F)(F)F)c2F)n1` [Example 130, N-(3-(2-(3-cyclopropyl-3,8-diazabicyclo[3.2.1]octan-8-yl)-5-(2-(((1R,5S,6r)-3,3-dioxido-3-thiabicyclo[3.1.0]hexan-6-yl)amino)-pyrimidin-4-yl)thiazol-4-yl)-2-fluorophenyl)-2-fluoro-6-(trifluoromethyl)benzenesulfonamide], 0.45 µM.
In the case of `CN1CC2CCC1CN2c1nc(-c2cccc(NS(=O)(=O)c3c(F)cccc3F)c2F)c(-c2ccnc(NC3CC4(C3)CS(=O)(=O)C4)n2)s1` (centres unmarked) [Example 28, N-(3-(5-(2-((2,2-dioxido-2-thiaspiro[3.3]heptan-6-yl)amino)pyrimidin-4-yl)-2-(5-methyl-2,5-diazabicyclo[2.2.2]octan-2-yl)thiazol-4-yl)-2-fluorophenyl)-2,6-difluorobenzenesulfonamide], the IC50 turned out to be 1.17 µM.
In the case of `CN1CC2CCC(C1)N2c1nc(-c2cccc(NS(=O)(=O)c3c(OC(F)F)cccc3C(F)(F)F)c2F)c(-c2ccnc(NC3CC4(C3)CS(=O)(=O)C4)n2)s1` [Example 75, 2-(difluoromethoxy)-N-(3-(5-(2-((2,2-dioxido-2-thiaspiro[3.3]heptan-6-yl)amino)pyrimidin-4-yl)-2-(3-methyl-3,8-diazabicyclo[3.2.1]octan-8-yl)thiazol-4-yl)-2-fluorophenyl)-6-(trifluoromethyl)benzenesulfonamide] it was 0.85 µM.
In the case of `O=S1(=O)C[C@@H]2[C@H](C1)[C@H]2Nc1nccc(-c2sc(N3C4CCC3CN(C3CCC3)C4)nc2-c2cccc(NS(=O)(=O)c3c(F)cccc3C(F)(F)F)c2F)n1` [Example 131, N-(3-(2-(3-cyclobutyl-3,8-diazabicyclo[3.2.1]octan-8-yl)-5-(2-(((1R,5S,6r)-3,3-dioxido-3-thiabicyclo[3.1.0]hexan-6-yl)amino)-pyrimidin-4-yl)thiazol-4-yl)-2-fluorophenyl)-2-fluoro-6-(trifluoromethyl)benzenesulfonamide], the IC50 came out at 0.12 µM.
In the case of `O=S1(=O)CC2(CC(Nc3nccc(-c4sc(C56CC(C(F)F)(C5)C6)nc4-c4cccc(NS(=O)(=O)c5c(F)cccc5C(F)(F)F)c4F)n3)C2)C1` [Example 92, N-(3-(2-(3-(difluoromethyl)bicyclo[1.1.1]pentan-1-yl)-5-(2-((2,2-dioxido-2-thiaspiro[3.3]heptan-6-yl)amino)pyrimidin-4-yl)thiazol-4-yl)-2-fluorophenyl)-2-fluoro-6-(trifluoromethyl)benzenesulfonamide] it was 0.04 µM.
In the case of `CN1CC2CCC(C1)N2c1nc(-c2cccc(NS(=O)(=O)c3c(F)cccc3F)c2F)c(-c2ccnc(NC3CC4(C3)CS(=O)(=O)C4)n2)s1` [Example 135, N-(3-(5-(2-((2,2-dioxido-2-thiaspiro[3.3]heptan-6-yl)amino)-pyrimidin-4-yl)-2-(3-methyl-3,8-diazabicyclo[3.2.1]octan-8-yl)thiazol-4-yl)-2-fluorophenyl)-2,6-difluorobenzenesulfonamide] it was 0.07 µM; in that of `O=S1(=O)CC2(CC(Nc3nccc(-c4sc(C5(C(F)F)CC5)nc4-c4cccc(NS(=O)(=O)c5c(F)cccc5C(F)(F)F)c4F)n3)C2)C1` [Example 80, N-(3-(2-(1-(difluoromethyl)cyclopropyl)-5-(2-((2,2-dioxido-2-thiaspiro[3.3]heptan-6-yl)amino)pyrimidin-4-yl)thiazol-4-yl)-2-fluorophenyl)-2-fluoro-6-(trifluoromethyl)benzenesulfonamide], 0.06 µM; in that of `CC1(C#N)CC2CCC(C1)N2c1nc(-c2cccc(NS(=O)(=O)c3c(F)cccc3C(F)(F)F)c2F)c(-c2ccnc(NC3CC4(C3)CS(=O)(=O)C4)n2)s1` (centres unmarked) [Example 151, N-(3-(2-(3-cyano-3-methyl-8-azabicyclo[3.2.1]octan-8-yl)-5-(2-((2,2-dioxido-2-thiaspiro[3.3]heptan-6-yl)amino)pyrimidin-4-yl)thiazol-4-yl)-2-fluorophenyl)-2-fluoro-6-(trifluoromethyl)benzenesulfonamide], 0.051 µM.
With `[2H]C([2H])([2H])N1CC2CCC(C1)N2c1nc(-c2cccc(NS(=O)(=O)c3c(F)cccc3F)c2F)c(-c2ccnc(NC3CC4(C3)CS(=O)(=O)C4)n2)s1` [Example 137, N-(3-(5-(2-((2,2-dioxido-2-thiaspiro[3.3]heptan-6-yl)amino)-pyrimidin-4-yl)-2-(3-(methyl-d3)-3,8-diazabicyclo[3.2.1]octan-8-yl)thiazol-4-yl)-2-fluorophenyl)-2,6-difluorobenzenesulfonamide], the IC50 was found to be 0.1 µM.
For the compound `O=S1(=O)CC2(CC(Nc3nccc(-c4sc(N5C6CCC5CN(C5COC5)C6)nc4-c4cccc(NS(=O)(=O)c5c(F)cccc5F)c4F)n3)C2)C1` [Example 144, N-(3-(5-(2-((2,2-dioxido-2-thiaspiro[3.3]heptan-6-yl)amino)-pyrimidin-4-yl)-2-(3-(oxetan-3-yl)-3,8-diazabicyclo[3.2.1]octan-8-yl)thiazol-4-yl)-2-fluorophenyl)-2,6-difluorobenzenesulfonamide], the IC50 is 0.24 µM.
